{
  "source": "paper PMC8290497",
  "about": "“Taxifolin, an Inhibitor of Sortase A, Interferes With the Adhesion of Methicillin-Resistant Staphylococcal aureus” (Frontiers in Microbiology, 2021)",
  "key": {"[1]": {"system": "HepG2 cells", "experiment": "CCK-8 cytotoxicity assay, HepG2", "format": "cell-based", "method": "(§1) Cytotoxicity was determined using a cell counting kit-8 assay (CCK-8, US EVERBRIGHT, Suzhou, China), as described previously ([Xiao et al., 2018]). HEK293 or HepG2 cells were seeded in 96-well plates (Corning, United States) at a density of 5 × 10^4 cells/well, then incubated at 37°C in an atmosphere containing 5% CO2 for 24 h. The culture medium was then exchanged with fresh medium containing different concentrations of Tax (0–200 μM) or vehicle and incubated for an additional 24 h. CCK-8 solution (10 μL) was carefully added then incubated for 4 h in an incubator at 37°C. The OD value at 450 nm was measured to calculate cell viability.\n(§2) FIGURE 2 Growth curve and cytotoxicity. (A) Growth curves of S. aureus USA300 and the ΔsrtA group with different concentrations of Tax. (B) Growth rate of S. aureus USA300 and S. aureus treated with Tax (25 μM). (C) Percent cell viability of HEK293 (purple) and HepG2 (blue) cells were measured using a CCK-8 assay after incubation with Tax for 24 h."}, "[2]": {"biological_target": "T1, D170A-SrtA mutant (Staphylococcus aureus, UniProt Q2FV99, D170A)", "T1 construct": "6xHis; made in house; host or cells: E. coli BL21 (DE3), mutated pET28a-SrtA", "experiment": "Fluorescence quenching assay, D170A-SrtA", "format": "binding", "method": "Site-directed mutagenesis for D170A-SrtA and Q172A-SrtA was performed based on plasmid pET28a-SrtA using a multi-site mutagenesis kit (Transgen, Beijing, China) and the desired mutation was verified via DNA sequencing by Sangon Biotech (Shanghai, China). Subsequently, recombinant SrtA and the SrtA mutant proteins (D170A and Q172A) were expressed and purified in accordance with a previously published procedure ([Zhulenkovs et al., 2014]). Briefly, bacteria were cultured until an OD600 value of 0.8 was achieved, after which 0.5 mM isopropyl-β-D-thiogalactopyranoside (IPTG) was added to induce recombination of SrtA at 16°C overnight. Because the recombinant protein had 6 × His tags, it was purified using a nickel-nitrilotriacetic acid (Ni-NTA) purification system. Imidazole (10 mM) was used to wash away excess protein, while 400 mM imidazole was employed to elute the target protein.\n(§3) Molecular modeling studies highlight the benefits of performing site-directed mutagenesis studies. Therefore, fluorescence quenching experiments were utilized to determine the binding affinity of Tax with SrtA and SrtA mutants (D170A, Q172A)."}, "[3]": {"system": "S. aureus USA300", "experiment": "Broth microdilution susceptibility assay (MIC)", "format": "cell-based", "settings": "Staphylococcus aureus, S. aureus USA 300", "method": "(§4) A broth microdilution assay was performed to determine the minimum inhibitory concentration (MIC) of Tax for S. aureus USA300, as described elsewhere ([Sader et al., 2013]; [Delgado-Valverde et al., 2017]). A growth curve was further evaluated by adding various concentrations of Tax (0–200 μM) to a bacterial culture, then incubating until an OD600 of 0.3 had been reached. S. aureus USA300 and ΔsrtA were used as controls. The OD600 value was recorded for each sample at 1 h intervals for a total of 24 h. The growth rate between S. aureus treated with Tax and S. aureus USA300 was also calculated at each time point."}, "[4]": {"system": "BALB/c mice", "settings": "mouse, in vivo, ip, 200 mg/kg", "quoted_text": "An injection of PBS represented the control group. Symptoms of poisoning or abnormal behavior were monitored, and survival of the mice in each group was recorded after 72 h."}, "[5]": {"system": "adhesion of S. aureus USA300 to fibrinogen", "experiment": "Fibrinogen binding assay (crystal violet)", "format": "cell-based", "settings": "Staphylococcus aureus, USA300, read-out: inhibition rate of adhesion of bacteria to fibrinogen"}, "[6]": {"biological_target": "T2, SrtA (Staphylococcus aureus, UniProt Q2FV99)", "T2 construct": "6xHis; made in house; host or cells: E. coli BL21 (DE3), plasmid pET28a-SrtA", "experiment": "Localized surface plasmon resonance (LSPR)", "format": "binding", "method": "The interaction between Tax and SrtA was determined using an OpenSPR localized surface plasmon resonance (LSPR) instrument (Nicoya, Canada) at 25°C, as described previously ([Panneer Selvam et al., 2018]; [Song et al., 2019]). Briefly, SrtA proteins were captured on a COOH chip using a standard amine coupling system. A 200 μL aliquot of blocking buffer was added to rinse the sample ring and to remove any air. After a stable baseline had been achieved, the affinity between Tax and SrtA was measured by injecting 20, 40, 80, 160, or 320 μM Tax. The kinetic parameters of the binding reaction were calculated and visualized using TraceDrawer software ([Yang et al., 2011]).\nFIGURE 4 Expression of SrtA in the presence of Tax and the interaction of different concentrations of Tax with SrtA. (A) Western blot analysis of SrtA protein from S. aureus treated with various concentrations of Tax and grayscale analysis of SrtA protein bands. (B) LSPR analysis verified the binding affinity of Tax with SrtA. Error bars represent means ± SD of three replicates. ***P < 0.001 calculated with a two-tailed Student’s t-test."}, "[7]": {"biological_target": "T3, WT-SrtA (Staphylococcus aureus, UniProt Q2FV99)", "T3 construct": "6xHis; made in house; host or cells: E. coli BL21 (DE3), plasmid pET28a-SrtA", "experiment": "Fluorescence quenching assay, WT-SrtA", "format": "binding", "text": "as §3"}, "[8]": {"system": "S. aureus USA300", "experiment": "Growth curve and growth rate", "format": "cell-based, Staphylococcus aureus", "method": "as §4, §2"}, "[9]": {"system": "S. aureus mature biofilms", "experiment": "Mature biofilm assay (crystal violet)", "format": "cell-based, Staphylococcus aureus", "settings": "25–200 μM Tax, 24 h", "method": "S. aureus biofilms were formed for 24 h at 37°C on the surfaces of the wells of a 96-well plate. Following biofilm formation, different Tax concentrations (25–200 μM) were added to selected wells and the plates were incubated for 24 h at 37°C. The effects of Tax on the mature biofilms were estimated using the crystal violet stain and recorded by a microplate reader.\nFIGURE 3 Effect of SrtA inhibitor on virulence-related phenotypes in S. aureus Newman strain. (A) Impact of Tax on the ability of S. aureus to adhere to fibrinogen. (B) Biofilm formation of S. aureus in the presence of different concentrations of Tax. (C) Mature biofilms of S. aureus in the presence of different concentrations of Tax. The ΔsrtA group represented the positive control. (D) Tax affects internalization of S. aureus into A549 cells. A549 cells were infected with S. aureus pretreated with different concentrations of Tax then lysed 2 h post-infection. The number of viable S. aureus in the cells was quantified by serial dilution on TSA agar plates. (E) Effects of Tax on S. aureus protein A (SpA) using FITC-labeled rabbit IgG. Error bars represent means ± SD of three replicates. *P < 0.05, **P < 0.01, ***P < 0.001 calculated with a two-tailed Student’s t-test."}, "[10]": {"system": "HEK293 cells", "experiment": "CCK-8 cytotoxicity assay, HEK293", "format": "cell-based", "method": "as §1, §2"}},
  "data": [
    {"smiles": "O=C1c2c(O)cc(O)cc2OC(c2ccc(O)c(O)c2)C1O", "note": "(centres unmarked) [Tax, taxifolin]", "values": [
      {"measurement": "toxicity toward mammalian cells (HepG2)", "setting": "[1]; 200 μM", "result": "did not display toxicity"},
      {"measurement": "cytotoxicity toward HepG2 cells", "setting": "[1]; at 24.53 ± 0.42 μM, 24 h", "result": "no significant cytotoxicity"},
      {"measurement": "Kd", "setting": "[2]", "result": 37.2, "unit": "µM"},
      {"measurement": "MIC", "setting": "[3]", "result": 512, "unit": "µg/mL"},
      {"measurement": "acute toxicity, signs observed", "setting": "[4]", "result": "no signs of malaise, or tardy or inanimate behavior"},
      {"measurement": "inhibition at 200 µM", "setting": "[5]", "result": "35.1 ± 0.49", "unit": "%"},
      {"measurement": "Kd", "setting": "[6]", "result": 165, "unit": "µM"},
      {"measurement": "kon", "setting": "[6]; read-out: Ka", "result": 22.3, "unit": "M⁻¹ s⁻¹"},
      {"measurement": "Kd", "setting": "[7]", "result": 15.6, "unit": "µM"},
      {"measurement": "toxicity toward S. aureus", "setting": "[8]; 200 μM", "result": "did not display toxicity"},
      {"measurement": "effect on the growth of S. aureus", "setting": "[8]; at a concentration of IC50 (25 μM), P > 0.05", "result": "no significant effect"},
      {"measurement": "effect on mature biofilms", "setting": "[9]", "result": "had no effect"},
      {"measurement": "toxicity toward mammalian cells (HEK293)", "setting": "[10]; 200 μM", "result": "did not display toxicity"},
      {"measurement": "cytotoxicity toward HEK293 cells", "setting": "[10]; at 24.53 ± 0.42 μM, 24 h", "result": "no significant cytotoxicity"}
    ]}
  ]
}
